Measurements as given in the supplement of paper PMC4932681.

How the values were obtained:
[1] = test system: BT-474 Tam2; experiment: drug sensitivity score (DSS) (DSS (dimensionless)); higher = more sensitive; extreme values may be limits of the assay; settings: 4-OH-tamoxifen in medium 1 µM; 72 h
Description: (§1)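 FIMM FO2B library drugs were tested at 5 concentrations (10,000-fold range) for 72 h, with CellTiter-Glo viability normalised to DMSO and benzethonium chloride controls. The Drug Sensitivity Score (DSS) is computed from the fitted logistic dose-response curve (area-based; 0 = inactive). Resistant lines and the 'in 1µM tamoxifen' arms were tested in 1 µM 4-OH-tamoxifen.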

[2] = test system: T-47D; experiment: as above; settings: 72 h
Description: as §1

[3] = test system: BT-474 Tam1; experiment: as above; settings: 4-OH-tamoxifen in medium 1 µM; 72 h
Description: as §1

[4] = test system: ZR-75-1; experiment: as above; settings: 72 h
Description: as §1

[5] = test system: MCF-7; experiment: as above; settings: 72 h
Description: as §1

[6] = test system: MCF-7 Tam1; experiment: as above; settings: 4-OH-tamoxifen in medium 1 µM; 72 h
Description: as §1

[7] = test system: ZR-75-1 Tam1; experiment: as above; settings: 4-OH-tamoxifen in medium 1 µM; 72 h
Description: as §1

[8] = test system: BT-474; experiment: as above; settings: 72 h
Description: as §1

[9] = test system: T-47D Tam1; experiment: as above; settings: 4-OH-tamoxifen in medium 1 µM; 72 h
Description: as §1

[10] = test system: ZR-75-1 Tam2; experiment: as above; settings: 4-OH-tamoxifen in medium 1 µM; 72 h
Description: as §1

[11] = test system: T-47D Tam2; experiment: as above; settings: 4-OH-tamoxifen in medium 1 µM; 72 h
Description: as §1

[12] = test system: BT-474 Tam2; experiment: relative IC50 (midpoint of fitted logistic curve, plateau may be below 50% inhibition; CellTiter-Glo viability); higher = less potent; settings: 4-OH-tamoxifen in medium 1 µM; 72 h
Description: (§2)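 FIMM FO2B library drugs were plated at 5 concentrations spanning a 10,000-fold range in 384-well plates. Cells were incubated for 72 h at 37 °C and viability was read by CellTiter-Glo, normalised to DMSO (0% inhibition) and 100 µM benzethonium chloride (100% inhibition). IC50 values come from logistic dose-response fits (Breeze pipeline). Tamoxifen-resistant lines and the 'in 1µM tamoxifen' parental arms were tested in medium with 1 µM 4-OH-tamoxifen.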

[13] = test system: T-47D; experiment: as above; settings: 72 h
Description: as §2

[14] = test system: BT-474 Tam1; experiment: as above; settings: 4-OH-tamoxifen in medium 1 µM; 72 h
Description: as §2

[15] = test system: ZR-75-1; experiment: as above; settings: 72 h
Description: as §2

[16] = test system: MCF-7; experiment: as above; settings: 72 h
Description: as §2

[17] = test system: MCF-7 Tam1; experiment: as above; settings: 4-OH-tamoxifen in medium 1 µM; 72 h
Description: as §2

[18] = test system: ZR-75-1 Tam1; experiment: as above; settings: 4-OH-tamoxifen in medium 1 µM; 72 h
Description: as §2

[19] = test system: BT-474; experiment: as above; settings: 72 h
Description: as §2

[20] = test system: ZR-75-1 Tam2; experiment: as above; settings: 4-OH-tamoxifen in medium 1 µM; 72 h
Description: as §2

[21] = test system: T-47D Tam1; experiment: as above; settings: 4-OH-tamoxifen in medium 1 µM; 72 h
Description: as §2

| SMILES | drug sensitivity score [1] | drug sensitivity score ([2]; 4-OH-tamoxifen in medium 0 µM) | drug sensitivity score ([2]; 4-OH-tamoxifen in medium 1 µM) | drug sensitivity score [3] | drug sensitivity score ([4]; 4-OH-tamoxifen in medium 0 µM) | drug sensitivity score ([4]; 4-OH-tamoxifen in medium 1 µM) | drug sensitivity score ([5]; 4-OH-tamoxifen in medium 0 µM) | drug sensitivity score ([5]; 4-OH-tamoxifen in medium 1 µM) | drug sensitivity score [6] | drug sensitivity score [7] | drug sensitivity score ([8]; 4-OH-tamoxifen in medium 0 µM) | drug sensitivity score ([8]; 4-OH-tamoxifen in medium 1 µM) | drug sensitivity score [9] | drug sensitivity score [10] | drug sensitivity score [11] | relative IC50 [12] | relative IC50 ([13]; 4-OH-tamoxifen in medium 1 µM) | relative IC50 [14] | relative IC50 ([15]; 4-OH-tamoxifen in medium 0 µM) | relative IC50 ([15]; 4-OH-tamoxifen in medium 1 µM) | relative IC50 ([16]; 4-OH-tamoxifen in medium 0 µM) | relative IC50 ([16]; 4-OH-tamoxifen in medium 1 µM) | relative IC50 [17] | relative IC50 [18] | relative IC50 ([19]; 4-OH-tamoxifen in medium 0 µM) | relative IC50 ([19]; 4-OH-tamoxifen in medium 1 µM) | relative IC50 [20] | relative IC50 [21] | relative IC50 ([13]; 4-OH-tamoxifen in medium 0 µM) |
| --- | --- | --- | --- | --- | --- | --- | --- | --- | --- | --- | --- | --- | --- | --- | --- | --- | --- | --- | --- | --- | --- | --- | --- | --- | --- | --- | --- | --- | --- |
| CC(C)(C)c1cc(NC(=O)Nc2ccc(-c3cn4c(n3)sc3cc(OCCN5CCOCC5)ccc34)cc2)no1 [Quizartinib (AC220)] | 0 | 0 | 0 | 0 | 0 | 0 | 0 | 0 | 0 | 0 | 0 | 0 | 0 | 0 | 0.279 | > 1000 nM | > 1000 nM | > 1000 nM | > 1000 nM | > 1000 nM | > 1000 nM | > 1000 nM | > 1000 nM | > 1000 nM | > 1000 nM | > 1000 nM | > 1000 nM |  |  |
| COc1cc(F)c(F)c(Nc2ccc(I)cc2F)c1NS(=O)(=O)C1(C[C@H](O)CO)CC1 [Refametinib (RDEA119)] | 0.629 | 1.6 | 0.324 | 3.68 | 0.912 | 0 | 3.75 | 3.88 | 3.77 | 0 | 0 | 6.44 | 4.09 | 0 | 1.2 |  |  | 571 nM |  | > 10000 nM | 1410 nM | 1080 nM | 389 nM |  | > 10000 nM | 700 nM |  | 335 nM |  |
| Cn1c(=O)c(F)c(Nc2ccc(I)cc2F)c2c(=O)n(C[C@@H](O)CO)cnc21 [TAK-733] | 2.4 | 0 | 0 | 0 | 0 | 0 | 1.63 | 5.38 | 0 | 0 | 0 | 2.56 | 3.14 | 0 | 0.474 |  | > 1000 nM |  | > 1000 nM | > 1000 nM |  |  | > 1000 nM | > 1000 nM | > 1000 nM |  | > 1000 nM |  | > 1000 nM |
| Cc1cc(C(C)Nc2ccccc2)c2nc(N3CCOCC3)cc(=O)n2c1 (stereo unspecified) [TGX-221] | 1.6 | 0 | 0.16 | 1.23 | 13.2 | 11 | 1.97 | 2.11 | 0 | 9.5 | 0 | 0.562 | 0.102 | 14.3 | 0.389 | 4070 nM |  |  | 74.3 nM | 74.8 nM |  |  | > 10000 nM | 193 nM | > 10000 nM |  | 104 nM |  | > 10000 nM |
| CC1=C(/C=C/C(C)=C/C=C/C(C)=C/C(=O)O)C(C)(C)CCC1 [Tretinoin] | 0 | 0 | 0 | 0 | 0 | 0 | 0 | 0.52 | 0 | 0 | 0 | 0 | 0.561 | 0 | 0.122 | > 10000 nM | > 10000 nM | > 10000 nM | > 10000 nM | > 10000 nM | > 10000 nM |  | > 10000 nM | > 10000 nM | > 10000 nM | > 10000 nM | > 10000 nM |  | > 10000 nM |
| C1CN1c1nc(N2CC2)nc(N2CC2)n1 [Triethylenemelamine] | 0 | 0 | 0 | 0 | 0 | 0 | 0 | 0 | 0 | 0 | 0 | 0 | 0.0501 | 0 | 0.12 | > 10000 nM | > 10000 nM | > 10000 nM | > 10000 nM | > 10000 nM | > 10000 nM | > 10000 nM | > 10000 nM | > 10000 nM | > 10000 nM | > 10000 nM | > 10000 nM |  | > 10000 nM |
| CN1CCc2c(c3ccccc3n2Cc2ccc(C(=O)NO)cc2)C1 [Tubastatin A] | 0.145 | 0 | 0 | 1.77 | 0.27 | 0.715 | 0 | 0.884 | 0 | 0.0626 | 0 | 0.725 | 0 | 0.301 | 0 |  | > 10000 nM | 3120 nM |  |  |  |  | > 10000 nM |  | > 10000 nM |  |  | > 10000 nM | > 10000 nM |
| COc1cc2/c(=N/c3ccc(Br)cc3F)nc[nH]c2cc1OCC1CCN(C)CC1 [Vandetanib  (ZD6474, Zactima)] | 0.605 | 0 | 0 | 0.381 | 0 | 0 | 0.65 | 0.193 | 0 | 0 | 0 | 0 | 0.009 | 0 | 1.6 |  | > 1000 nM |  | > 1000 nM | > 1000 nM |  |  | > 1000 nM | > 1000 nM | > 1000 nM | > 1000 nM | > 1000 nM |  | > 1000 nM |
